Experimental data reported in the NIST ThermoML archive (doi:10.1021/je900227j).
± gives the expanded uncertainty stated by the source.

Settings: 101.33 kPa, Liquid; for speed of sound: Pulse-echo method; for mass density: Pycnometric method

CCCCCCCBr [1-bromoheptane]
Settings | mass density [kg/m3] | speed of sound [m/s]
243.74 K | – | 1308.3 ± 2.8
253.15 K | 1180.21 ± 0.53 | –
263.15 K | 1169.57 ± 0.51 | –
273.15 K | 1159.15 ± 0.48 | –
273.33 K | – | 1207.2 ± 2.6
283.15 K | 1148.71 ± 0.46 | –
298.15 K | 1132.91 ± 0.44 | –
303.19 K | – | 1108.7 ± 2.4
323.14 K | – | 1045.1 ± 2.3
323.15 K | 1105.97 ± 0.47 | –
343.15 K | 1084.54 ± 0.5 | –
353.14 K | – | 952.86 ± 2.1
363.15 K | 1061.75 ± 0.53 | –
383.15 K | 1038.55 ± 0.56 | –
383.17 K | – | 863.47 ± 1.9
393.15 K | 1026.63 ± 0.58 | –
423.22 K | – | 748.09 ± 1.7

CCCCCCCCCCCCBr [1-bromododecane]
Settings | mass density [kg/m3] | speed of sound [m/s]
273.15 K | 1056.54 ± 0.45 | –
273.32 K | – | 1323.5 ± 2.8
283.15 K | 1048.47 ± 0.43 | –
293.15 K | 1039.81 ± 0.41 | –
303.15 K | 1031.27 ± 0.42 | –
303.21 K | – | 1224.8 ± 2.6
323.15 K | 1013.99 ± 0.45 | –
323.18 K | – | 1161.2 ± 2.5
343.15 K | 996.24 ± 0.48 | –
353.15 K | – | 1069.7 ± 2.4
363.15 K | 979.02 ± 0.51 | –
383.15 K | 961.54 ± 0.55 | –
383.17 K | – | 982.95 ± 2.2
393.15 K | 952.43 ± 0.57 | –
403.19 K | – | 926.37 ± 2.1
413.15 K | 933.49 ± 0.6 | –
423.14 K | – | 871.74 ± 2
423.15 K | 923.65 ± 0.62 | –

CCCCCCCCBr [1-bromooctane]
Settings | mass density [kg/m3] | speed of sound [m/s]
243.61 K | – | 1336.3 ± 2.9
253.15 K | 1151.11 ± 0.55 | –
263.15 K | 1140.86 ± 0.52 | –
273.15 K | 1131.22 ± 0.5 | –
273.28 K | – | 1235.4 ± 2.7
283.15 K | 1121.21 ± 0.47 | –
293.15 K | 1111.01 ± 0.45 | –
303.15 K | 1100.89 ± 0.46 | –
303.16 K | – | 1137.2 ± 2.5
323.02 K | – | 1073.8 ± 2.4
323.15 K | 1080.6 ± 0.49 | –
343.15 K | 1060.45 ± 0.51 | –
352.91 K | – | 981.92 ± 2.2
363.15 K | 1039.47 ± 0.55 | –
382.88 K | – | 892.87 ± 2
383.15 K | 1018.75 ± 0.58 | –
393.15 K | 1008.38 ± 0.6 | –
402.55 K | – | 835.51 ± 1.9
423.04 K | – | 778.72 ± 1.8

CCCCCCCCCCCBr [1-bromoundecane]
Settings | mass density [kg/m3] | speed of sound [m/s]
273.15 K | 1067.26 ± 1.3 | –
273.42 K | – | 1307 ± 3.4
283.2 K | 1058.34 ± 1.3 | –
293.2 K | 1049.49 ± 1.2 | –
298.15 K | 1045.03 ± 1.2 | –
303.22 K | – | 1209 ± 3.3
323.19 K | – | 1145.6 ± 3.2
323.2 K | 1023.21 ± 1.2 | –
343.2 K | 1005.75 ± 1.2 | –
353.14 K | – | 1054.4 ± 3
363.2 K | 987.93 ± 1.3 | –
383.14 K | – | 966.59 ± 2.9
383.2 K | 969.56 ± 1.3 | –
403.13 K | – | 909.71 ± 2.8
403.25 K | 951.27 ± 1.3 | –
423.13 K | – | 854.45 ± 2.8

CCCBr [1-bromopropane]
Settings | mass density [kg/m3] | speed of sound [m/s]
243.15 K | 1431.07 ± 0.54 | –
243.76 K | – | 1144.8 ± 2.4
253.15 K | 1415.43 ± 0.51 | –
263.15 K | 1400.28 ± 0.49 | –
263.38 K | – | 1075 ± 2.2
273.15 K | 1385.33 ± 0.47 | –
273.31 K | – | 1040.1 ± 2.1
283.15 K | 1369.4 ± 0.45 | –
283.26 K | – | 1005.5 ± 2.1
293.15 K | 1352.89 ± 0.43 | –
293.22 K | – | 971.22 ± 2
298.15 K | 1344.48 ± 0.43 | –
298.21 K | – | 954.05 ± 2
323.21 K | – | 870.16 ± 1.8
343.21 K | – | 804.19 ± 1.7
363.23 K | – | 739.38 ± 1.5
383.47 K | – | 674.94 ± 1.4

CCCCCCCCCCBr [1-bromodecane]
Settings | mass density [kg/m3] | speed of sound [m/s]
253.4 K | 1105.66 ± 1.6 | –
263.3 K | 1096.34 ± 1.5 | –
273.25 K | 1087.32 ± 1.5 | –
283.2 K | 1078.06 ± 1.4 | –
293.15 K | 1069.01 ± 1.4 | –
298.15 K | 1064.47 ± 1.4 | –
323.15 K | 1041.72 ± 1.4 | –
323.2 K | – | 1123.8 ± 3.2
343.15 K | 1023.01 ± 1.4 | –
353.19 K | – | 1032.2 ± 3.1
363.15 K | 1004.33 ± 1.4 | –
383.15 K | 985.41 ± 1.4 | –
383.22 K | – | 944.49 ± 2.9
403.23 K | – | 888.22 ± 2.9
403.25 K | 966.27 ± 1.4 | –
423.27 K | – | 833.21 ± 2.8
423.3 K | 946.49 ± 1.4 | –

CCCCCCBr [1-bromohexane]
Settings | mass density [kg/m3] | speed of sound [m/s]
243.6 K | – | 1273.8 ± 2.7
253.15 K | 1217.95 ± 0.52 | –
263.15 K | 1206.62 ± 0.5 | –
273.15 K | 1195.28 ± 0.47 | –
273.31 K | – | 1172.8 ± 2.5
283.15 K | 1183.82 ± 0.45 | –
298.15 K | 1166.83 ± 0.43 | –
303.2 K | – | 1073.6 ± 2.3
323.15 K | 1137.27 ± 0.46 | –
323.2 K | – | 1009.3 ± 2.2
343.15 K | 1113.66 ± 0.49 | –
353.16 K | – | 916.03 ± 2
383.15 K | 1066.11 ± 0.55 | –
383.19 K | – | 826.35 ± 1.8
403.15 K | 1040.91 ± 0.58 | –
403.25 K | – | 767.47 ± 1.7
423.23 K | – | 709.98 ± 1.6

CCCCBr [1-bromobutane]
Settings | mass density [kg/m3] | speed of sound [m/s]
243.38 K | – | 1195.3 ± 2.5
253.15 K | 1326.49 ± 0.5 | –
263.15 K | 1313.8 ± 0.48 | –
273.15 K | 1300.5 ± 0.46 | –
273.26 K | – | 1091 ± 2.3
283.15 K | 1286.37 ± 0.43 | –
293.15 K | 1272.7 ± 0.41 | –
298.15 K | 1265.66 ± 0.42 | –
303.15 K | 1258.55 ± 0.42 | –
323.15 K | 1229.53 ± 0.45 | –
323.22 K | – | 925.99 ± 1.9
343.22 K | – | 861.16 ± 1.8
363.23 K | – | 797.6 ± 1.7
383.31 K | – | 735.21 ± 1.6

CCCCCBr [1-bromopentane]
Settings | mass density [kg/m3] | speed of sound [m/s]
243.73 K | – | 1240 ± 2.8
253.15 K | 1260.65 ± 0.79 | –
263.15 K | 1249.88 ± 0.76 | –
273.32 K | – | 1137.5 ± 2.6
283.15 K | 1226.85 ± 0.69 | –
293.15 K | 1214.88 ± 0.66 | –
303.15 K | 1202.6 ± 0.67 | –
303.22 K | – | 1037.1 ± 2.4
323.15 K | 1177.13 ± 0.69 | –
323.17 K | – | 972.37 ± 2.3
343.15 K | 1150.97 ± 0.72 | –
353.18 K | – | 877.57 ± 2.1
363.15 K | 1124.69 ± 0.74 | –
383.15 K | 1097.39 ± 0.76 | –
383.23 K | – | 785.49 ± 2
393.15 K | 1083.35 ± 0.78 | –
403.28 K | – | 725.54 ± 1.9
423.48 K | – | 666.58 ± 1.8

CCCCCCCCCBr [1-bromononane]
Settings | mass density [kg/m3] | speed of sound [m/s]
253.15 K | 1124.52 ± 1.5 | –
253.46 K | – | 1329.9 ± 3.5
263.2 K | 1115.2 ± 1.4 | –
273.15 K | 1105.5 ± 1.4 | –
273.29 K | – | 1262.7 ± 3.3
283.15 K | 1096.09 ± 1.4 | –
293.15 K | 1086.58 ± 1.3 | –
298.15 K | 1082.2 ± 1.3 | –
303.15 K | – | 1165.1 ± 3.2
323.14 K | – | 1101.1 ± 3.1
323.15 K | 1058.34 ± 1.3 | –
343.15 K | 1038.92 ± 1.3 | –
353.1 K | – | 1009.9 ± 3
363.15 K | 1019.42 ± 1.3 | –
383.05 K | – | 921.46 ± 2.8
383.15 K | 999.36 ± 1.3 | –
393.15 K | 989.17 ± 1.3 | –
402.98 K | – | 864.42 ± 2.8
413.15 K | 968.48 ± 1.3 | –
422.72 K | – | 808.79 ± 2.7
